Values of other authors, collected in patent US20020022024A1, “Hemoglobinase inhibitors and methods of use” (priority 2000, published 2002).

Key:
schistosomules = conditions: added to culture media, in comparison to controls; Zerda et al. 1988
[1] = biological target: T1, S. mansoni cathepsin B, Sm31 (Schistosoma mansoni, UniProt P25792); conditions: short synthetic substrate; Klinkert et al. 1994
T1 sequence (P25792 89-340): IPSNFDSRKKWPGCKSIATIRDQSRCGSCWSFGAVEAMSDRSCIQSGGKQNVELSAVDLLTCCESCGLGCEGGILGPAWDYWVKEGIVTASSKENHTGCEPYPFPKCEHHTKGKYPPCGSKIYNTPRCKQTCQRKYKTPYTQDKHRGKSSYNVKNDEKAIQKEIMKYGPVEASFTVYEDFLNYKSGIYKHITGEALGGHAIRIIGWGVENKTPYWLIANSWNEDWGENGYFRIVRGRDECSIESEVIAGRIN

SMILES	death rate of schistosomules (schistosomules)	inhibitor potency on Sm31 relative to a derivative of E64 [1]
CC(C)C[C@H](NC(=O)[C@H]1O[C@@H]1C(=O)O)C(=O)NCCCCN [EP459]	increased the death rate of schistosomules	–
CSCCC(NC(=O)C(Cc1c[nH]c2ccccc12)NC(=O)OCc1ccccc1)C(=O)C=[N+]=[N-] (stereo not drawn) [Z-Trp-Met-CHN2]	–	more potent inhibitor of Sm31
